Source: US5225436A, “Aryl substituted naphthalene derivatives” (Schering Corporation, priority 1991, dated 1993)
Read-outs that look alike come from different tables or passages of the source.

How the values were obtained:
5-lipoxygenase = biological target: T1, 5-lipoxygenase (Homo sapiens, UniProt P09917); assay: 5-Lipoxygenase assay with human neutrophils; assay type: cell-based; conditions: 5 min, Human PMN; for inhibition at 15 µM: dose 15 μm (μM)
T1 construct: Human polymorphonuclear leukocytes (neutrophils) were obtained from normal healthy volunteers; endogenous in cells; host or cells: human blood neutrophils from healthy volunteers
T1 sequence (P09917 1-674): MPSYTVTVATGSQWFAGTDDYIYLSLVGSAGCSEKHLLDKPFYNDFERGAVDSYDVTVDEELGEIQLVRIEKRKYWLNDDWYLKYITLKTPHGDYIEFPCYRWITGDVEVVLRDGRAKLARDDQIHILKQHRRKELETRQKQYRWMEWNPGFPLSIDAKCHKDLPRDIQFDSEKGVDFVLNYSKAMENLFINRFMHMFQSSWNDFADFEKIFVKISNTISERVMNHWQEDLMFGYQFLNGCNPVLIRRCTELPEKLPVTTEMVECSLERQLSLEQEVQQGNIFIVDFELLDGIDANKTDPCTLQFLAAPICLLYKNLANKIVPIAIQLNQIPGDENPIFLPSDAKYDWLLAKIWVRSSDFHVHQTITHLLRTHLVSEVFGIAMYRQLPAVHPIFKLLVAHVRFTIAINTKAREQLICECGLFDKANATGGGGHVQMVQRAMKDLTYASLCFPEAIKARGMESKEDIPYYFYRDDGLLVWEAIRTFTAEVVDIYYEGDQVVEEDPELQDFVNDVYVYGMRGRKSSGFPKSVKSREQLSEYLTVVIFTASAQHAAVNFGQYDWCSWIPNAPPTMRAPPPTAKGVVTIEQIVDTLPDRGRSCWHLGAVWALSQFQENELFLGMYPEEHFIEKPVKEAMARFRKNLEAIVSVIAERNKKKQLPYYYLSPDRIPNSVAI
Protocol: Human polymorphonuclear leukocytes (neutrophils) were obtained from normal healthy volunteers by venipuncture and collected with heparin anticoagulant. Neutrophils were isolated by Dextran/Ficol sedimentation as described (Billah et al., J. Biol. Chem. 260, 6899-6906 (1985)). In brief, 30 ml of blood was mixed with 5 ml of dextran (Sigma) solution and kept at 37° C. for 30 min. The upper white cell-rich layer was removed and 10 ml was layered on 9 ml of Ficol-Paque solution (Pharmacia) and centrifuged at 280 xg for 10 min. at 5° C. The supernatant was removed and the neutrophil pellet was resuspended in HEPES buffer containing 25 mM N-2-hydroxyethylpiperazine-N^1 -2-ethanesulfonic acid HEPES, 125 mM NaCl, 2.5 mM KCl, 0.7 mM MgCl2, […] 10 mM glucose at pH 7.4. The red cells in the suspension were lysed by hypotonic shock. The neutrophils were washed by centrifugation in HEPES buffer two times and finally resuspended at a concentration of 20×10^6 cells/ml in the presence of 1 mM CaCl2.
Neutrophils (0.2 ml of suspension) were preincubated with dimethylsulfoxide (DMSO) vehicle with or without test compound (1 ul) for 4 minutes then incubated for 5 minutes with [^14 C] arachidonic acid (Amersham, 59 Ci/mole) at a 9 uM final concentration, and the calcium ionophore A23187 (Calbiochem) at a 1 uM final concentration. These stimulants were added in 10 ul of water:ethanol (9:1). The reaction was stopped by addition of methanol (0.4 ml), and cellular debris was removed by centrifugation. Aliquots (100 ul) of the incubations were run on a Waters two pump HPLC system fitted with a DuPont Zorbax ODS, 5u, […] Reliance Cartridge column and C18 "Guard Pak". The column was initially eluted at 2 ml/min with 80% of the mixture water:methanol:acetic acid (46:54:0.08) containing 1 mM EDTA adjusted to pH 6.0 with ammonium hydroxide (Pump A) and 20% methanol (Pump B). At 10 minutes, a linear gradient to reach 100% methanol (Pump B) at 27 minutes was established. Between 27 and 28 minutes, methanol was exchanged for the initial eluting solvent and by 35 minutes the column had been reequilibrated for the next sample. The effluent was analyzed by a continuous flow radioactivity monitor (model ROMONA-D) interfaced with a Hewlett Packard Lab Automation System for quantitation of radioactive products. These were predominantly leukotriene B4 (LTB4) which eluted at 7 minutes, and 5-hydroxyeicosatetraenoic acid (5-HETE) which eluted at 20 minutes.

[1] = tested on: SRS-A / leukotriene release from antigen-challenged, sensitized guinea pig lung; assay: Inhibition of SRS-A (leukotriene) release from antigen-challenged, sensitized guinea pig lung; assay type: cell-based; set-up: inhibition: dose or concentration left out as unconfirmed; conditions: Cavia porcellus; for inhibition: Dose 30 μm (μM)
Source text: The anti-allergy method of this invention is identified by tests which measure a compound's inhibition of leukotriene release in sensitized guinea pigs. Sensitized guinea pigs are killed by a blow to the head and the lungs removed and cleaned of visible connective tissue, trachea and large blood vessels. The lungs from individual animals are sliced into fragments approximately 1 mm in thickness using a McIlwain tissue chopper and then washed with oxygenated Tyrode's buffer. Weighed aliquots (approximately 400 mg wet weight) of lung are transferred into vials containing 2 ml of fresh Tyrode's solution (containing 10 mM cysteine) and incubated in the presence or absence of test compound for 12 min at 37° C. The tissues are then challenged with 20 μg ovalbumin/ml (final concentration) and incubated for 15 min. To measure leukotriene release, an aliquot of supernatant fluid is extracted with 4 volumes of 100% ethanol. After removal of the precipitated protein, the clear fluid is dried under a stream of N2 gas. The leukotriene content is measured by a radioimmunoassay using [^3 H]LTC4 and antiserum obtained from New England Nuclear. The cross-reactivity of the antiserum for LTD4 is 55%. Percent inhibition of lekotriene release is calculated by comparing for each lung the release in the presence of the test compound to that in the absence of test compound. Representative compounds of the invention at a relative dose of 50 μM of tissue are found to inhibit leukotriene release in the test procedure as indicated below in Table 1: […]

| SMILES | inhibition at 15 µM (5-lipoxygenase; read-out: % Inhibition 5-HETE) | inhibition at 15 µM (5-lipoxygenase; read-out: % Inhibition LTB) | other results |
| --- | --- | --- | --- |
| COc1cc(OC)c2c(c1)C(C)(C)C(c1ccc(OC)c(OC)c1)CCO2 (stereo not drawn) [drawing 106 [X=O; R3/R4=H,H; J=H; L,P=OCH3]] | 39% | 28% |  |
| COc1ccc(CC2(Cc3ccc(OC)cc3)CC(C)(C)c3cc(OC)cc(OC)c3C2=O)cc1 [drawing 102 [A=drawing 104; B=drawing 105]] | 88% |  |  |
| C=CCC1C(=O)c2c(OC)cc(OC)cc2C(C)(C)C1c1ccc(OC)c(OC)c1 (stereo not drawn) |  | 0% |  |
| COc1cc(OC)c2c(c1)C(C)(C)C(c1ccc(OC)c(OC)c1)CC(Sc1ccccc1)C2=O (stereo not drawn) | 61% |  |  |
| CC1=C(c2ccc(O)c(O)c2)C(C)(C)c2cc(O)cc(O)c2C1=O | 90% | 96% | inhibition at 5 µM (5-lipoxygenase; read-out: % Inhibition 5-HETE): 13%; inhibition at 5 µM (5-lipoxygenase; read-out: % Inhibition LTB): 46% |
| COc1ccc(C2CC(=O)c3c(OC)cccc3C2(C)C)cc1OC (stereo not drawn) | 23% |  |  |
| COc1cc(OC)cc(C2=CC(=O)c3c(cc(OC)c(OC)c3OC)C2(C)C)c1 [drawing 101 [R3/R4=O; E,G,P,L,K=OCH3; db yes]] | 7% | 1% |  |
| COc1cc(OC)c2c(c1)C(C)(C)C(c1ccc(OC)c(OC)c1)C(C)C(=O)O2 (stereo not drawn) [drawing 106 [X=O; R3/R4=O; J=CH3; L,P=OCH3], 4-(3,4-dimethoxyphenyl)-4,5-dihydro-7,9-dimethoxy-3,5,5-trimethyl-1-benzoxepin-2(3H)-one] | 20% | 2% |  |
| CON=C1CC(c2ccc(OC)c(OC)c2)C(C)(C)c2cc(OC)cc(OC)c21 (stereo not drawn) | 55% | 47% |  |
| CC1(C)c2cc(O)cc(O)c2C(=NO)CC1c1cc(O)cc(O)c1 (stereo not drawn) | 57% |  |  |
| COc1cc(O)c2c(c1)C(C)(C)C(c1ccc(OC)c(OC)c1)=CC2=O |  |  | inhibition at 50 µM [1]: 10% |
| COc1cc(OC)c2c(c1)C(C)(C)C(c1ccc(OC)c(OC)c1)CC2=NNC(=O)c1ccccc1 (stereo not drawn) | 22% | 38% |  |
| COc1cc(OC)c2c(c1)C(C)(C)C(c1ccc(OC)c(OC)c1)CC2=NNC(=O)c1ccccc1O (stereo not drawn) | 41% | 50% |  |
| COc1cc(O)c2c(c1)C(C)(C)C(c1cc(O)cc(O)c1)CC2=O (stereo not drawn) | 75% |  |  |
| CC(=O)Oc1cc(OC(C)=O)c2c(c1)C(C)(C)[C@H](c1ccc(OC(C)=O)c(OC(C)=O)c1)[C@@H](OC(C)=O)C2=O (relative stereo) |  |  | inhibition at 50 µM [1]: 41% |
| COc1cc(OC)c2c(c1)C(C)(C)C(c1ccc(OC)c(OC)c1)CC21OCCO1 (stereo not drawn) |  |  | inhibition [1]: 23% |
| COc1cc(OC)c2c(c1)C(C)(C)C(c1ccc(OC)c(OC)c1)=C(O)C2=O |  |  | inhibition at 50 µM [1]: 24% |
| COc1cc(OC)c2c(c1)C(C)(C)C(c1ccc(OC)c(OC)c1)CC2=NOC(C)=O (stereo not drawn) | 13% | 18% |  |
| COc1ccc(CC2CC(C)(C)c3cc(OC)cc(OC)c3C2=O)cc1 (stereo not drawn) [drawing 85 [A=drawing 86; B=H]] |  |  | inhibition [1]: 0% |
| COc1cc(OC)c2c(c1)C(C)(C)C(c1ccc(OC)c(OC)c1)CC2=NN (stereo not drawn) | 35% |  |  |
| COc1cc(OC)cc(C2=CC(=O)c3c(OC)cc(OC)cc3C2(C)C)c1 | 0% | 0% |  |

| SMILES | inhibition at 15 µM (5-lipoxygenase; read-out: % Inhibition 5-HETE) | inhibition at 15 µM (5-lipoxygenase; read-out: % Inhibition LTB) | other results |
| --- | --- | --- | --- |
| COc1ccc(C2=CC(=O)c3c(OC)cccc3C2(C)C)cc1OC | 28% |  |  |
| COc1ccc(C2CC(=O)Cc3c(OC)cccc3C2(C)C)cc1OC (stereo not drawn) [8-(3,4-dimethoxyphenyl)-9,9-dimethyl-4-methoxy-5,7,8,9-tetrahydro-6H-benzocyclohepten-6-one] | 61% | 22% |  |
| COc1cc(OC)c2c(c1)C(C)(C)C(c1ccc(OC)c(OC)c1)CC2=NNC(C)=O (stereo not drawn) | 0% | 0% |  |
| CC(=O)Oc1cc(OC(C)=O)c2c(c1)C(C)(C)[C@H](c1ccc(OC(C)=O)c(OC(C)=O)c1)[C@H](OC(C)=O)C2=O (relative stereo) |  |  | inhibition at 50 µM [1]: 26% |
| COc1cc(OC)cc(C2=CC(=O)c3c(cc(OC)c(OC)c3OC)C2(C)C)c1 [drawing 84 [K=OCH3]] |  |  | inhibition [1]: 21% |
| COc1cc(OC)c2c(c1)C(C)(C)C(c1ccc(OC)c(OC)c1)CC2Sc1ccc(Cl)cc1 (stereo not drawn) [listing 1 of 2 here] |  |  | inhibition [1]: 14% |
| COc1ccc2c(c1)C(C)(C)C(c1ccc(OC)c(OC)c1)=CC2=O | 79% |  |  |
| COc1cc(OC)c2c(c1)C(C)(C)C(c1ccc(OC)c(OC)c1)CC2Sc1ccc(Cl)cc1 (stereo not drawn) [listing 2 of 2 here] | 36% |  |  |
| CC1(C)c2cc(O)cc(O)c2C(=O)CCC1c1ccc(O)c(O)c1 (stereo not drawn) [drawing 107 [X=O; db no; W,J,F=H; E,G,L,P=OH]] | 88% |  |  |
| CC1(C)c2cc(O)cc(O)c2C(=O)CC1c1cccc(O)c1 (stereo not drawn) | 23% |  |  |
| COc1cc(OC)cc(C2=CC(=O)c3c(OC)cc(OC)cc3C2(C)C)c1 [drawing 84 [K=H]] |  |  | inhibition [1]: 33% |
| COc1cc(OC)c2c(c1)C(C)(C)[C@H](c1ccc(OC)c(OC)c1)[C@@H](OC(C)=O)C2=O (relative stereo) |  |  | inhibition at 50 µM [1]: 12% |
| COc1ccc(CC2CC(C)(C)c3cc(OC)cc(OC)c3C2=O)cc1 (stereo not drawn) [drawing 102 [A=drawing 103; B=H]] | 86% |  |  |
| CC1(C)C(c2cc(O)cc(O)c2)=CC(=O)c2c(O)cc(O)cc21 | 11% |  |  |
| COc1cc(O)c2c(c1)C(C)(C)C(c1ccc(OC)c(OC)c1)CC2=O (stereo not drawn) | 0% |  |  |
| COc1ccc(CC2(Cc3ccc(OC)cc3)CC(C)(C)c3cc(OC)cc(OC)c3C2=O)cc1 [drawing 85 [A=drawing 87; B=drawing 88]] |  |  | inhibition [1]: 16% |
| COc1cc(OC)c2c(c1)C(C)(C)CC(c1ccccc1)C2=O (stereo not drawn) [drawing 102 [A=C6H5; B=H]] | 64% |  |  |
| COc1cc(OC)cc(C2CCC(=O)c3c(OC)cc(OC)cc3C2(C)C)c1 (stereo not drawn) [8-(3,5-dimethoxyphenyl)-6,7,8,9-tetradydro-2,4-dimethoxy-9,9-dimethyl-5H-benzocyclohepten-5-one] | 46% | 46% |  |
| CCOC(=O)C1C(=O)c2c(OC)cc(OC)cc2C(C)(C)C1c1ccc(OC)c(OC)c1 (stereo not drawn) | 69% | 89% |  |
| COc1cc(OC)c2c(c1)C(C)(C)C(c1ccc(OC)c(OC)c1)CC2=NOC(=O)C(C)(C)C (stereo not drawn) | 0% |  |  |
| COc1cc(OC)c2c(c1)C(C)(C)C(c1ccc(OC)c(OC)c1)C=CC2=O (stereo not drawn) | 48% |  |  |
